Data published in patent publication US20060074243A1, “Hydroxamic acid and amide compounds and their use as protease inhibitors” (Pharmacia Corporation, priority 2002, published 2006).

What was measured:
Human recombinant MMP-14 = biological target: T1, Human recombinant MMP-14 (Homo sapiens, UniProt P50281); assay: In vitro MMP inhibition analysis (fluorogenic peptide substrate cleavage), Ki; type: biochemical; details: Table 2
T1 construct: The catalytic domain enzyme was expressed in E. coli inclusion bodies, solubilized in urea; made in house
In short: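 Refolded catalytic domain of MMP-14 expressed in E. coli, activated with APMA or trypsin, incubated 1 h at room temperature with 4 μM MCA-peptide substrate in Tris buffer pH 7.5 with CaCl2. Cleavage rate followed by fluorescence (ex 330/em 420 nm). Ki from Morrison-equation fit; substrate at or below Km, so no substrate correction.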

Human recombinant MMP-2 = biological target: T2, Human recombinant MMP-2 (Homo sapiens, UniProt P08253); assay: as above; type: biochemical; details: Table 2
T2 construct: made in house; host or cells: MMP-2-transfected p2AHT2 cells
T2 sequence (P08253 110-660): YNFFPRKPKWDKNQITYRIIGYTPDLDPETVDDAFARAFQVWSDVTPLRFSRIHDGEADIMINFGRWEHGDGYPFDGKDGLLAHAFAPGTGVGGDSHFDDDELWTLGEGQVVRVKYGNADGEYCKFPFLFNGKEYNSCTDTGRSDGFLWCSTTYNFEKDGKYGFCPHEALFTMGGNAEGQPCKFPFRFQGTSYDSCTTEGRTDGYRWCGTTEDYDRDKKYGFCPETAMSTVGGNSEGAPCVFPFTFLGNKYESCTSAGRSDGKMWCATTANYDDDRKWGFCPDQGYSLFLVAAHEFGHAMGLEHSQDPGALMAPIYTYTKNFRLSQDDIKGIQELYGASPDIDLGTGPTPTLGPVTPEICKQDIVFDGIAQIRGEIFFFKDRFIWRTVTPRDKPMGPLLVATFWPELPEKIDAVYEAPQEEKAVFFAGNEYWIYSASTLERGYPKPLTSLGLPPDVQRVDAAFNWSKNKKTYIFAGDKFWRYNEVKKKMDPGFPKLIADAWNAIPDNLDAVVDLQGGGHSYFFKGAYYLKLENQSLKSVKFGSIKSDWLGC
In short: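 Human recombinant MMP-2 from transfected p2AHT2 cells was activated with APMA or trypsin and incubated 1 h at room temperature with compounds and 4 μM MCA-RPLGL(Dpa)ARER-NH2. Buffer was pH 7.5 Tris/NaCl/CaCl2, and fluorescence was read at ex 330/em 420 nm. Ki was fitted by Morrison's equation without substrate correction.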

Ki (Human recombinant MMP-14) [nM]	Ki (Human recombinant MMP-2) [nM]	Compound
224	5.96	O=C(NO)C1(S(=O)(=O)c2ccc(-c3cnccn3)cc2)CCOCC1 [Example 71]
2280	5.81	COCCN1CCC(C(=O)NO)(S(=O)(=O)c2ccc(-c3ccc(OCCN4CCCC4)cc3)cc2)CC1 [Example 72]
52.6	0.158	O=C(NO)C1(S(=O)(=O)c2ccc(-c3ccc(CCO)cc3)cc2)CCOCC1 [Example 98]
421	0.112	CC(C)CCc1ccc(-c2ccc(S(=O)(=O)C3(C(=O)NO)CCOCC3)cc2)nc1 [Example 99]
> 10000	32.5	COC(C)CCOc1ccc(-c2ccc(S(=O)(=O)C3(C(=O)NO)CCOCC3)cc2)cc1C(F)(F)F (centres unmarked) [Example 100]
929	0.878	CCCCCc1ccc(-c2ccc(S(=O)(=O)C3(C(=O)NO)CCOCC3)cc2)c(F)c1 [Example 101]
11.1	0.078	COc1ccc(-c2ccc(S(=O)(=O)C3(C(=O)NO)CCOCC3)cc2)cc1F [Example 102]
342	0.278	CC(C)Cc1ccc(-c2ccc(S(=O)(=O)C3(C(=O)NO)CCOCC3)cc2)nc1 [Example 103]
247	0.087	O=C(NO)C1(S(=O)(=O)c2ccc(-c3ccc(-c4ccccc4)cc3)cc2)CCOCC1 [Example 104]
1730	5.79	CCCCc1nc(-c2ccc(S(=O)(=O)C3(C(=O)NO)CCOCC3)cc2)no1 [Example 105]
744	0.497	CC(C)CCOc1ccc(-c2ccc(S(=O)(=O)C3(C(=O)NO)CCOCC3)cc2)cc1 [Example 108]
1850	0.539	CCN1CCC(C(=O)NO)(S(=O)(=O)c2ccc(-c3ccc(OCCOC)c(F)c3)cc2)CC1 [Example 110]
1790	0.645	CCN1CCC(C(=O)NO)(S(=O)(=O)c2ccc(-c3ccc(OCCOC)cc3)cc2)CC1 [Example 111]
681	0.168	COCCOc1ccc(-c2ccc(S(=O)(=O)C3(C(=O)NO)CCN(C4CC4)CC3)cc2)cc1F [Example 112]
499	0.17	COCCOc1ccc(-c2ccc(S(=O)(=O)C3(C(=O)NO)CCN(C4CC4)CC3)cc2)cc1 [Example 113]
585	0.217	COCCOc1ccc(-c2ccc(S(=O)(=O)C3(C(=O)NO)CCN(CCOC)CC3)cc2)cc1F [Example 114]
530	0.276	COCCOc1ccc(-c2ccc(S(=O)(=O)C3(C(=O)NO)CCN(CCOC)CC3)cc2)cc1 [Example 115]
2930	0.514	CCOCCOc1ccc(-c2ccc(S(=O)(=O)C3(C(=O)NO)CCN(CC)CC3)cc2)cc1 [Example 116]
1110	0.208	CCOCCOc1ccc(-c2ccc(S(=O)(=O)C3(C(=O)NO)CCN(CCOC)CC3)cc2)cc1 [Example 117]
